Literature values in patent US6645524B2, “Oral pharmaceutical dosage forms for pulsatile delivery of an antiarrhythmic agent” (Pierce Management LLC, priority 2000, dated 2003).
Where two headings read alike, the source gives them in different places.

What was measured:
[1] = test system: high-risk post-myocardial infarction patients; settings: 3,121 patients with left ventricular ejection fraction of 40% or below, versus placebo
[2] = more than 99% enantiomerically pure, given in tablets
[3] = test system: patients with symptomatic primary paroxymal atrial fibrillation/atrial flutter; settings: for median time to recurrence of symptomatic ECG-documented atrial fibrillation/atrial flutter: twice a day
[4] = test system: patients with chronic atrial fibrillation/atrial flutter; settings: titrated 80 mg/day to 320 mg/day after cardioversion; placebo 44 days
QT interval = settings: 6 days of 80 mg twice or three times daily, 10 patients
[5] = test system: patients with histories of sustained ventricular tachyarrhythmias; settings: versus imipramine, mexiletine, pirmenol, procainamide, propafenone and quinidine, 496 patients

Compound | mortality [1] | effect on heart rate and blood pressure [2] | absorption (given with food) | apparent volume of distribution (human, in vivo) | eliminated by renal excretion as unchanged sotalol (human, in vivo) | protein binding (human, in vivo) | bioavailability (no significant presystemic metabolism) | absorption (oral ingestion on an empty stomach) | patients discontinued because of adverse events ([3]; 80 mg dose level) | median time to recurrence of symptomatic ECG-documented atrial fibrillation/atrial flutter ([3]; 80 mg dose level) | patients discontinued because of adverse events ([3]; 120 mg dose level) | median time to recurrence of symptomatic ECG-documented atrial fibrillation/atrial flutter ([3]; 120 mg dose level) | patients discontinued because of adverse events ([3]; 160 mg dose level) | median time to recurrence of symptomatic ECG-documented atrial fibrillation/atrial flutter ([3]; 160 mg dose level) | median time to recurrence of ECG-documented atrial fibrillation [4] | partial loss of repolarization effect (pharmacodynamic tolerance) (QT interval) | preventing death from arrhythmias or any other cardiac cause [5]
CC(C)NC[C@@H](O)c1ccc(NS(C)(=O)=O)cc1 [d-sotalol] | increased mortality compared with placebo | decreased resting and exercise heart rate without altering blood pressure | – | – | – | – | – | – | – | – | – | – | – | – | – | – | –
CC(C)NCC(O)c1ccc(NS(C)(=O)=O)cc1 (racemic) [sotalol] | – | – | approximately 80% | two | 80-90% | negligible | completely bioavailable | completely absorbed | 12% | 106 days | 18% | 229 days | 29% | 175 days | more than 180 days | four out of the ten patients | more effective than the other agents
